Experiments:
[1] = tested on: PM10D-induced airway inflammation model; assay: FACS analysis of immune cells in bronchoalveolar lavage fluid (BALF); type: in vivo, Balb/c mice; conditions: BAL, ATG-E1 4×10^9 CFU/mouse, Dexa 3 mg/kg, orally daily for 10 days
Experimental: (§1) There were 8 Balb/c mice (male, 8 weeks old) per group, and all groups except a normal group were injected with a fine dust mixture using the Intra-Nazal-Trachea (INT) injection method described in literatures. The fine dust mixture contained diesel exhaust particles (DEP) (PM10 (Sigma)) and 1% (final concentration) of alum. The fine dust mixture was directly injected into the airways and noses of the experimental animals on days 4, 7, and 10 of the experiment. (Lim et al., Free Radic Biol Med. 25 (6), 635-644 (1998), Shin et al., Korean J. Mediclinal Crop Sci 27 (3), 218-231 (2019)). […] An autopsy was performed on the 11th day after the start of the experiment, and bronchoalveloar lavage fluid (BALF) and lung tissue were collected.
Immune cell profiles (lymphocytes, neutrophils, macrophages, T cell subtypes, Gr-1^+CD11b^+, etc.) were measured by fluorescence-activated cell sorting (FACS) analysis of bronchoalveolar lavage fluid isolated from each individual after the end of the experiment in Example 3-1.

[2] = tested on: PM10D-induced airway inflammation model; assay: FACS analysis of immune cells in cells isolated from lung tissue; type: in vivo, Balb/c mice; conditions: ATG-E1 4×10^9 CFU/mouse, Dexa 3 mg/kg, orally daily for 10 days
Experimental: as §1
Immune cell profiles (lymphocytes, neutrophils, macrophages, T cell subtypes, Gr-1^+CD11b^+, etc.) were measured by fluorescence-activated cell sorting (FACS) analysis of […] lung tissue of each individual after the end of the experiment in Example 3-1.

`C[C@@H]1C[C@H]2[C@@H]3CCC4=CC(=O)C=C[C@]4(C)[C@@]3(F)[C@@H](O)C[C@]2(C)[C@@]1(O)C(=O)CO` [Dexa, dexamethasone] was tested, and the “CD4^+ (Absolute No.)” value ([1]; NC 0.07, CTL 5.26) was 3.43 ± 0.58 ×10^7 cells, the “Lymphocytes (Absolute No.)” value ([1]; NC 0.08, CTL 0.82) was 0.96 ± 0.53 ×10^7 cells and the “CD4^+CD69^+ (Absolute No.)” value ([1]; NC 0.08, CTL 1.73) was 1.40 ± 0.19 ×10^7 cells. The “CD8^+ (Absolute No.)” value ([1]; NC 0.14, CTL 3.72) was 2.80 ± 0.71 ×10^7 cells, the “Gr-1^+CD11b^+ (Absolute No.)” value ([1]; NC 0.34, CTL 1.62) was 1.38 ± 0.12 ×10^7 cells and the “CD62L^−CD44^+high (Absolute No.)” value ([1]; NC 0.99, CTL 6.40) was 5.95 ± 0.85 ×10^7 cells. For the same compound, the “Macrophage (Absolute No.)” value ([1]; NC 1.18, CTL 1.82) was 2.29 ± 0.28 ×10^7 cells, the “Neutrophils (Absolute No.)” value ([1]; NC 3.59, CTL 15.09) was 15.01 ± 2.14 ×10^7 cells and the “Gr-1^+CD11b^+ (Absolute No.)” value ([2]; NC 0.17, CTL 1.07) was 0.60 ± 0.08 ×10^7cells. For the same compound, the “CD4^+CD69^+ (Absolute No.)” value ([2]; NC 0.20, CTL 3.01) was 0.29 ± 0.07 ×10^7 cells, the “CD21/35 + B220^+ (Absolute No.)” value ([2]; NC 0.27, CTL 3.40) was 1.35 ± 0.32 ×10^7 cells and the “CD62L^−CD44^+high (Absolute No.)” value ([2]; NC 0.35, CTL 2.53) was 1.27 ± 0.15 ×10^7 cells. For the same compound, the “CD8^+ (Absolute No.)” value ([2]; NC 1.11, CTL 3.46) was 1.92 ± 0.18 ×10^7 cells, the “Eosinophils (Absolute No.)” value ([2]; NC 1.56, CTL 6.87) was 3.41 ± 1.06 ×10^7 cells and the “CD4^+ (Absolute No.)” value ([2]; NC 1.97, CTL 6.13) was 3.32 ± 0.42 ×10^7cells. The “Lymphocytes (Absolute No.)” value ([2]; NC 2.60, CTL 3.17) was 9.34 ± 6.56 ×10^7 cells and the “Neutrophils (Absolute No.)” value ([2]; NC 3.03, CTL 12.04) was 3.41 ± 0.83 ×10^7 cells.

Reference: patent US12667598B2, “Lactobacillus paracasei ATG-EI strain or composition comprising same for preventing or treating respiratory disease” (priority 2021, dated 2026)
